Patent US20080050387A1, “Non-Androgen Dependent Roles for Androgen Receptor and Non-Androgen Related Inhibitors of Androgen Receptor” (priority 2003, published 2008)

Assays:
AR [1] = assay: Mammalian two-hybrid assay hRad9 / AR in PC-3 cells; assay type: cell-based, human
Method: PC-3, CWR22R, and LNCaP cell lines were maintained in […] supplemented with 10% fetal calf serum (FCS). Transient transfection for luciferase assays was carried out in 24-well plates (5×10^4 cells per well) using SuperFect as described previously (Lin, H. K., et al., Embo J 21:4037-48 (2002)). DNA mixtures in transfection assay were indicated in each figure. The total amount of transfected DNA was kept constant (1 μg) by adding the corresponding amounts of empty expression plasmids. After transfection, cells were cultured in […] supplemented with 5% charcoal-stripped FCS in the presence or absence of 10 nM dihydrotestosterone (DHT) for 18 h. Luciferase assays were performed as previously described (Yang, L., et al., J Biol Chem 278:16820-7 (2003)). In Western blotting assays, CWR22R or LNCaP cells were transfected by electroporation using 5×10^6 cells/0.4 ml of RPMI medium containing 2% FCS plus 9 μg of the indicated plasmids. 1 μg of EGFP expression vector was used for transfection efficiency. Electroporation was performed at 250 V and 950 μF using Gene Pulser II (Bio-Rad)

MAPK = settings: cited from earlier work
AR [2] = assay: TSA effect on AR transactivation, reporter assay in COS-1 cells; assay type: cell-based, human; settings: 1 nM TSA
Method: H1299 and COS-1 cells were maintained in Dulbecco's modified Eagle's medium (DMEM) (Life Technologies, Inc.) supplemented with 10% heat inactivated fetal bovine serum (FBS). LNCap cells were maintained in RPMI 1640 supplemented with […]. All media contain 100 units penicillin, 100 μg/ml streptomycin and 2 mM L-glutamine. Cells were seeded to a density of 50-60% confluency for transfection. In transfections where H1299 and COS-1 cells were used, the calcium phosphate precipitation method was used as described (Pan H J, et al. 1999. Endocrine 11:321-327) unless otherwise noted. […] In other reporter gene assays, where ligand treatment was required, cell culture media were changed to DMEM containing 10% charcoal-dextran-stripped FBS (CD-FBS) 2 h before transfection. After 16-18 h transfection, cells were treated with medium containing either vehicle or ligands for another 20-24 h and then cells were harvested. With LNCap cells transfection, the cells were treated with fresh RPMI 1640 containing 10% CD-FBS before transfection with SuperFect performed according to the manufacturer's protocol (Qiagen). After transfection, cells were allowed to recover in fresh RPMI 1640 containing 10% CD-FBS for 8-12 h, and then treated with either vehicle or ligands for another 20-24 h before harvesting. Each experiment was repeated at least three times.

COS-1 and H1299 = assay: TSA toxicity in transfected cells
[3] = test system: MAPK (GAL4-Elk1 transactivation); assay: GAL4-Elk1 reporter gene assay (MAPK activation) in MCF7 cells; assay type: cell-based, human
Method: Cells were plated in 96-well plates and plasmids at 0.5 μg per well were transfected into cells using SuperFect (Qiagen). The medium was changed 2 h after transfection and cells were cultured in the medium containing 10% CDS-FBS or 0.2% HI-FBS for 16 h, followed by treatment with 50 ng/ml EGF, 100 ng/ml IGF-1,100 ng/ml HRG-α 0.1 nM E2, or 1 nM DHT for another 16 h. Cells were then harvested and the luciferase activity was analyzed using Dual-Luciferase Reporter Assay System (Promega). 5 ng pRL-TK per well was used as internal control.

[4] = test system: AR expression in AR^+/+ MCF7 cells; assay: AR siRNA transfection of AR+/+ MCF7 cells: Ki67 immunostaining, Ki67 and c-myc mRNA, S-phase entry; assay type: cell-based, human
Method: All animal experimentation was conducted in accordance with accepted standards of humane animal care. Tissues were fixed in 4% paraformaldehyde for 24 h at 4° C. Paraffin-embedded tissues were sectioned (5-7 μm) onto Probe-On Plus charged slides (Fisher Scientific, Pittsburgh, Pa.). Fresh mammary gland tissues were frozen in liquid nitrogen and stored at −80° C. before RNA extraction. 3 μg of total RNA was reverse-transcribed (RT) and subjected to real-time PCR using iCycle (Bio-Rad). Primer sequences were designed by Beacon Designer II software (Bio-Rad) and the formula used were described previously (Bieche et al. 2001). β-Actin was used as an internal control.
For IHC, sections were heated at 55° C. at least 2 h, deparaffinized in xylene, rehydrated, and washed in Tris-buffered saline (TBS)/pH 8.0. For antigen retrieval, slides were microwaved in 0.01 M sodium citrate/pH 6.0, and immersed with 1% hydrogen peroxide in methanol for 30 min, then blocked with 20% normal goat serum in TBS for 60 min. After washing with PBS, sections were incubated for 90 min in different antibody of diluted 1:200 to 1:500 in TBS containing 1% bovine serum albumin (BSA), followed by goat anti-rabbit biotinylated secondary antibody diluted 1:300 in TBS containing 1% BSA. Then sections were incubated with ABC solution for 30 min, followed by development with DAB peroxidase substrate kit (Vector Laboratories) for 5 min. Slides were counterstained with hematoxylin for 30 sec, then dehydrated, cleaned in xylene, and mounted. Primary antibody was replaced with normal rabbit IgG or 1% BSA in TBS for negative controls. For BrdU labeling, BrdU reagent and BrdU staining kit were purchased from Zymed Laboratories.
A small interfering RNA was expressed in mammalian cells by transfection of a DNA-based vector BS/U6 (Sui et al. 2002) containing a homologous sequence ([…]-TAGCTAC SEQ ID NO:9), a 6-bp spacer (CTCGAG), an inverted homologous sequence ([…] SEQ ID NO:10), and 5 Ts, at the transcription initiation site of the U6 promoter. See SEQ ID NO. 11 and 12 for fall AR siRNA.

CWR22R cells = assay: MTT growth assay of stably transfected CWR22R cells; assay type: cell-based, human; settings: CWR22R-S9A-GSK3β cells, 10 nM DHT, 2 μg/ml doxycycline, 5 days
Method: The MTT assay is a quantitative colorimetric assay for mammalian cell survival and proliferation. The 5×10^3 CWR22R cells were seeded in 24-well plates and incubated in RPMI medium 1640 with 5% CS-FCS for 48 h. Cells were then treated with ethanol, 10 nMDHT, and/or 2 μg/ml doxycycline for another 5 days. Then 200 μl of MTT (5 mg/ml; Sigma) was added into the each well with 1 ml of medium for 3 h at 37° C. After incubation, 2 ml of 0.04 M HCl in isopropyl alcohol was added into each well. After 5-min incubation at room temperature, the absorbance was read at a test wavelength of 570 nm.

AR [5] = assay: Luc reporter assay in stably transfected CWR22R cells; assay type: cell-based, human; settings: CWR22R-S9A-GSK3β cells, doxycycline induction
Method: (§1) COS-1 and PC-3 cells were maintained in early to mid-log phase in DMEM medium, supplemented with 10% fetal bovine serum (FBS), 50 units/ml penicillin and 50 μg/ml streptormnycin in incubators with humidified air and 5% carbon dioxide at 37° C. LNCaP cells were maintained in RPMI (GIBCO/BRL) medium. Twenty-four h prior to transfection, cells washed with Hanks' buffered saline solution, trypsinized, and seeded to be a density of 40-60% confluence for transfection. Cells in 12 well plates were refed with fresh medium 2 hours before transfection and transfected according to the “SuperFect Transfection” instructions (QIAGEN). After 2-3 h incubation, cells were treated with medium supplemented with charcoal-dextran treated FBS containing either ethanol or ligands. Cells were further incubated at 37° C. for 24 h, washed with PBS, and harvested.
The S9A-GSK3β gene was inserted into pBig vector with hygromycin resistance. The S9A-GSK3β-transfected CWR22R cells were selected and maintained in RPMI medium containing 50 μg/ml hygromycin (GIBCO).

AR [6] = assay: AR transactivation luciferase assay in COS-1 cells with GSK3β; assay type: cell-based, human; settings: ARE4-Luc, 10 nM DHT
Method: as §1
Target sequence in this assay (P10275 with tags, fused parts or gaps DEL79-80/DUP473-473): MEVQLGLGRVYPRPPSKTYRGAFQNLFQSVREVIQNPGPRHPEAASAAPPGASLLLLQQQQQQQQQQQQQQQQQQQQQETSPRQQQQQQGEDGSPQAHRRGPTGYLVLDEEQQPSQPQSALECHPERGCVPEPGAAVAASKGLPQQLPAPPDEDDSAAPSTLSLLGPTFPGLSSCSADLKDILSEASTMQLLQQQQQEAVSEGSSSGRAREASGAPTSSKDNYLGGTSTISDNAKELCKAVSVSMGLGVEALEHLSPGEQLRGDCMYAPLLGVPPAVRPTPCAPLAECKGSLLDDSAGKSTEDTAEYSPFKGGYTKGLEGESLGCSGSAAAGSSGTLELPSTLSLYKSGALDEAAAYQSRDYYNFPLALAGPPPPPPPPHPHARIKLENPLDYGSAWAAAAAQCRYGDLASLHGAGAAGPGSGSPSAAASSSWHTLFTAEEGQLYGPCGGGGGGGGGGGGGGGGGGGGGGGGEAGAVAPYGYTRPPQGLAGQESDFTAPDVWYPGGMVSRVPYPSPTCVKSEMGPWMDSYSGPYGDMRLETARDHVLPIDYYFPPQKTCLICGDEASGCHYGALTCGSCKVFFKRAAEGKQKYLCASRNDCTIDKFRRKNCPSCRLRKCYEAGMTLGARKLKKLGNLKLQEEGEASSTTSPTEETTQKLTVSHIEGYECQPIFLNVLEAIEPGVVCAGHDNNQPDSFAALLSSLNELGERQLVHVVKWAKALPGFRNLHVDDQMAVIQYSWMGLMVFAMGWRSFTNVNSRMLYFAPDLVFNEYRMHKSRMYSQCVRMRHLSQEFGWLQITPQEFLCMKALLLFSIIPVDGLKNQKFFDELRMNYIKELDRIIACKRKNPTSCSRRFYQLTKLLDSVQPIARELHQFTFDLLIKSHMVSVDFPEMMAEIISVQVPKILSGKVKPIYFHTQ

[7] = AR siRNA-transfected AR^+/+ MCF7 cells

CC(C)(O)C(=O)Nc1ccc([N+](=O)[O-])c(C(F)(F)F)c1 [HF, hydroxyflutamide, reference compound]
androgen-induced interaction between AR and hRad9 (AR [1]; 10^−5 M HF, 10^−8 M DHT): inhibited

COc1cccc(-c2cc(=O)c3ccccc3o2)c1N [PD098059]
Her2/Neu-, H-Ras- or C-myc-initiated mammary tumor growth (MAPK; Amundadottir and Leder 1998): inhibit | mammary gland alveolar morphogenesis (MAPK; Niemann et al. 1998): inhibit

CC(/C=C/C(=O)NO)=C\[C@@H](C)C(=O)c1ccc(N(C)C)cc1 [TSA, trichostatin A]
DHT-induced AR transactivation (AR [2]): enhanced | TSA concentration causing significant cell death (COS-1 and H1299): ≥ 10 nM | toxic effect (COS-1 and H1299; 1 nM TSA): no obvious toxic effect

N#CC(=C(/N)Sc1ccccc1N)/C(C#N)=C(\N)Sc1ccccc1N [U0126, reference compound]
AR-activated GAL4-Elk1 activity ([3]; AR-FL-activated, pG5-luc reporter): diminished

AR siRNA: small interfering RNA against AR expressed from the DNA-based vector BS/U6 (GGGCCCCTGGATGGATAGCTACCTCGAGGTAGCTATCCATCCAGGGGCC)
Ki67 immunostaining [4, 7]: lower degree | mRNA level of Ki67 reduced by [4, 7]: 42% | mRNA level of c-myc reduced by [4, 7]: 81% | number of cells entering S-phase of the cell cycle ([4]; AR^+/+ MCF7 cells, IGF-I/EGF/HRG-α): diminish | IGF-I/EGF/HRG-α-induced MAPK activation ([3]; AR^+/+ MCF7 cells transfected with AR siRNA): diminish

PKKFRSLFFGSI [GAL4-FXXLF fusion peptides]
interaction with AR (AR [1]; 10 nM DHT): Androgen-dependent interactions were demonstrated

S9A-GSK3β: constitutively active form of GSK3β
cell growth (MTT assay) (CWR22R cells): obvious growth arrest | AR transactivation reduced by (AR [5]): 30% | effect on AR activity (AR [6]): strongly inhibited
